Consider 11 molecules from article PMC11945486, “TAS1R2/TAS1R3 Single-Nucleotide Polymorphisms Affect Sweet Taste Receptor Activation by Sweeteners: The SWEET Project” (Nutrients, 2025).

This test concerns the target T1, human TAS1R2-WT/TAS1R3-G832R (Homo sapiens, UniProt Q7RTX0+Q8TE23, G832R).
T1 construct: expressed in transfected cells; host or cells: HEK293T stably expressing Gα16gust44
T1 sequence (Q8TE23 20-839): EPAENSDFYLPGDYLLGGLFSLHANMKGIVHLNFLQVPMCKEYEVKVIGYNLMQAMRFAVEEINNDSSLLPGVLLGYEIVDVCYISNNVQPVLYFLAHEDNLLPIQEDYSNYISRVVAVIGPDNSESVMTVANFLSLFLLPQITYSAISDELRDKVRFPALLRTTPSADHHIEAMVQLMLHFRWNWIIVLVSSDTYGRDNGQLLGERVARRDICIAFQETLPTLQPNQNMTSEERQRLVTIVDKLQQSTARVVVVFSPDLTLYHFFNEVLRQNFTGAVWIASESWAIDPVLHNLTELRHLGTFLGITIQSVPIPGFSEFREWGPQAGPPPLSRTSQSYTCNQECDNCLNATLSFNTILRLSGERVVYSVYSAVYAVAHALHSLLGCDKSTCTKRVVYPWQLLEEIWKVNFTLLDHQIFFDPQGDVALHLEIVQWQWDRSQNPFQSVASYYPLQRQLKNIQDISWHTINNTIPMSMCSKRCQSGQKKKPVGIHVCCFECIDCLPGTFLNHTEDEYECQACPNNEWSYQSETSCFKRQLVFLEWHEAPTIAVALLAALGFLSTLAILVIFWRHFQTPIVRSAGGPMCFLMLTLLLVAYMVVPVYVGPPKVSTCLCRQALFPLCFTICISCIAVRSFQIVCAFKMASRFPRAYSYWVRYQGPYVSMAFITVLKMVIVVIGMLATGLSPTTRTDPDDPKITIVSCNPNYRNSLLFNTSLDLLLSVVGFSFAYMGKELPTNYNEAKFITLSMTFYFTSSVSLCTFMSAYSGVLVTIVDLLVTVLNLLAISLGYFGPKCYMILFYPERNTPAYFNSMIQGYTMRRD
T1 sequence (Q7RTX0 21-852 G832R): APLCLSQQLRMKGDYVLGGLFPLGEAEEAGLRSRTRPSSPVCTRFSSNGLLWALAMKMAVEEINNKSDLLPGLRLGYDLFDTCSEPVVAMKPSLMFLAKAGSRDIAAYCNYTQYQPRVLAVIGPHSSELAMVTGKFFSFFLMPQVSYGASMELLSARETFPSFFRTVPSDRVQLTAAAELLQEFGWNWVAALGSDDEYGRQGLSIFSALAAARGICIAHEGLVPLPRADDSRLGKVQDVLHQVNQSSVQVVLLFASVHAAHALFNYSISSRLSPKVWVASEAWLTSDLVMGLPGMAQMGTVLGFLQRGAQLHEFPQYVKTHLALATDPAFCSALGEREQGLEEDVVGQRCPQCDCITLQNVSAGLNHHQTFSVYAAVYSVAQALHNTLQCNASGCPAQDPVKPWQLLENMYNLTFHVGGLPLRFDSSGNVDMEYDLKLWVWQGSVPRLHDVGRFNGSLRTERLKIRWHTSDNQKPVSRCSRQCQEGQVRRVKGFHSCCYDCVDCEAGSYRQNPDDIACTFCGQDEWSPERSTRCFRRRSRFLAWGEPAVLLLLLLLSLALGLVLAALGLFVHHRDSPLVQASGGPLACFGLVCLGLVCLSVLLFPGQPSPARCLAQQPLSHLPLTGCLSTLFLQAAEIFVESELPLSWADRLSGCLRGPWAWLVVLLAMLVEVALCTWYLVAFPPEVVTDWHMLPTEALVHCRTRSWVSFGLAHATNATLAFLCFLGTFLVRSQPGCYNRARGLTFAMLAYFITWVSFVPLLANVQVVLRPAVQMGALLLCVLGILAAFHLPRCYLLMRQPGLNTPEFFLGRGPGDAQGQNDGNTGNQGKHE
Nature of the test: Calcium mobilisation assay, TAS1R2-WT with TAS1R3 variant G832R. It is filed as cell-based. The settings on record: for Max ΔF/F0: maximal signal amplitude. An excerpt: The coding sequences for TAS1R2 and TAS1R3 were commercially synthesised, and the human codon was optimised for expression in human cells. The coding sequences of human TAS1R2 and TAS1R3 were subcloned and inserted into the mammalian expression vectors pcDNA6/myc-HisA and pcDNA4/myc-HisA (Invitrogen; Thermo Fisher Scientific; Illkirch, France) between the EcoRI and NotI restriction sites, generating the plasmids pcDNA6-TAS1R2 and pcDNA4-TAS1R3, respectively. To increase protein expression in mammalian cells, an upstream start codon was used, which was a sequence called MAX, corresponding to the QBI SP163 element also described in pcDNA4-HisMax (Invitrogen; Thermo Fisher Scientific; Illkirch, France). To measure the expression level of the receptor by immunohistochemistry, we used the FLAG sequence ([…]) in the C-terminal position, which encodes the FLAG tag epitope. SNP variants of TAS1R2 and TAS1R3 were constructed based on […], respectively, using site-directed mutagenesis (Genewiz; Leipzig, Germany).
The HEK293T cells were kindly provided by Jay P. Slack (Givaudan Flavors Corporation; Cincinnati, OH, USA). HEK293T cells stably transfected with Gα16gust44 [43, 67] were seeded in poly-D-lysine-coated clear-bottom black 96-well plates (0.35 × 10^5 cells/well) in high-glucose DMEM supplemented with 2 mM GlutaMAX, 10% dialysed foetal bovine serum with penicillin/streptomycin and G418 (400 μg/mL) at 37 °C and 6.3% CO2 in a humidified atmosphere as previously reported. […] As a negative control, HEK293T cells were mock-transfected with the empty expression vector. After a further 24 h of incubation, the HEK293T cells were washed with C1 buffer (130 mM NaCl, 5 mM KCl, 10 mM HEPES pH 7.4 and 2 mM CaCl2). The 96-well plates containing the cells were then stimulated with sweet-tasting compounds. […] Different concentration ranges were tested depending on the sweet compound injected. The Ca^2+ changes were expressed as fractional changes in fluorescent light intensity: ΔF/F = (F − F0)/F0, where F was the fluorescent light intensity at each point, and F0 was the value of emitted fluorescent light prior to stimulus application. To calculate dose–response relationships, the changes in fluorescence upon stimulus application were averaged, mock-subtracted and baseline-corrected. The dose–response data obtained were adjusted using a 4-parameter logistic equation. The half-maximal effective concentrations (EC50 values) and maximal signal amplitudes were calculated using SigmaPlot software (version 15.0) (Systat Software; San Jose, CA, USA).
For in vitro calcium mobilisation assay performed on hTAS1R2-SNPs, hTAS1R3-SNPs and mTAS1R3-I60T, 6 to 7 concentrations were tested for each sweet compound, plus buffer alone. All concentration–receptor combinations were measured in duplicate, and each experiment was repeated at least 4 times (8 wells/concentration). Results were expressed for each concentration as ΔF/F mean ± SEM and represented as dose–response curves.
On the technique in general: A change in cytosolic calcium serves as a functional read-out for many receptors and channels.

Read-outs that look alike come from different tables or passages of the source. No end group written: not given here.

One may read the EC50 as the concentration at which the effect is half-maximal. Turning to `C=C(C)[C@@H]1CC=C(/C=N/O)CC1` [Perillartine, perillartine], the “R1 = Variant EC50/WT EC50” value is reported as 0.5 and the “Max ΔF/F0” value amounted to 1.18 ± 0.14. Besides, the EC50 (read-out: EC50) is 7.2 ± 3 µM.

On to `O=S(=O)(O)NC1CCCCC1` [Cyclamate, cyclamate], for which the EC50 (read-out: EC50) came out at 998 ± 46 µM.

In the case of `C=C1C[C@@]23CC[C@H]4[C@@](C)(CCC[C@@]4(C)C(=O)O[C@@H]4O[C@H](CO)[C@@H](O)[C@H](O[C@@H]5O[C@H](CO)[C@@H](O)[C@H](O)[C@H]5O)[C@H]4O[C@@H]4O[C@H](CO)[C@@H](O)[C@H](O)[C@H]4O)[C@@H]2CC[C@]1(O[C@@H]1O[C@H](CO)[C@@H](O)[C@H](O[C@@H]2O[C@H](CO)[C@@H](O)[C@H](O)[C@H]2O)[C@H]1O[C@@H]1O[C@H](CO)[C@@H](O)[C@H](O)[C@H]1O)C3` [Rebaudioside M, rebaudioside M], the “R1 = Variant EC50/WT EC50” value turned out to be 0.6 and the “Max ΔF/F0” value came to 1.38 ± 0.07. The EC50 (read-out: EC50) stood at 22.7 ± 3.2 µM.

For `OC[C@H]1O[C@H](O[C@]2(CCl)O[C@H](CCl)[C@@H](O)[C@@H]2O)[C@H](O)[C@@H](O)[C@H]1Cl` [Sucralose], the “R1 = Variant EC50/WT EC50” value came to 0.7 and the “Max ΔF/F0” value is recorded as 0.91 ± 0.02. Besides, the EC50 (read-out: EC50) stood at 81 ± 4 µM.

In the case of `CC1=CC(=O)NS(=O)(=O)O1` [Acesulfame K, acesulfame K], the “R1 = Variant EC50/WT EC50” value is on record as 0.8 and the “Max ΔF/F0” value came out at 0.55 ± 0.03. Besides, the EC50 (read-out: EC50) worked out at 468 ± 64 µM.

On to “brazzein (QDKCKKVYENYPVSKCQLANQCNYDCKLDKHARSGECFYDEKRNLQCICDYCEY; ends and bridges not checked; cysteine pairing not given here; UniProt P56552 1-54, looked up) [sweet-tasting protein obtained by recombinant production using the yeast Pichia pastoris]”, for which the “R1 = Variant EC50/WT EC50” value was determined as 0.5 and the “Max ΔF/F0” value is 0.97 ± 0.07. The EC50 (brazzein) turned out to be 52.8 ± 15.7 µg/mL.

For thaumatin, the “R1 = Variant EC50/WT EC50” value was found to be 0.5 and the “Max ΔF/F0” value stood at 0.76 ± 0.03.

As for `COC(=O)[C@H](Cc1ccccc1)NC(=O)[C@H](CC(=O)O)NCCC(C)(C)C` [Neotame], the “R1 = Variant EC50/WT EC50” value is 0.7 and the “Max ΔF/F0” value worked out at 0.88 ± 0.02. The EC50 (read-out: EC50) is 0.8 ± 0.07 µM.

`C[C@H](CC[C@@H](O[C@@H]1O[C@H](CO[C@@H]2O[C@H](CO)[C@@H](O)[C@H](O)[C@H]2O)[C@@H](O)[C@H](O)[C@H]1O[C@@H]1O[C@H](CO)[C@@H](O)[C@H](O)[C@H]1O)C(C)(C)O)[C@H]1CC[C@@]2(C)[C@@H]3CC=C4[C@@H](CC[C@H](O[C@@H]5O[C@H](CO[C@@H]6O[C@H](CO)[C@@H](O)[C@H](O)[C@H]6O)[C@@H](O)[C@H](O)[C@H]5O)C4(C)C)[C@]3(C)[C@H](O)C[C@]12C` [Mogroside V, mogroside V]: the “R1 = Variant EC50/WT EC50” value came to 0.6 and the “Max ΔF/F0” value is listed as 1.23 ± 0.04. The EC50 (read-out: EC50) came out at 19.1 ± 1.7 µM.

With `COc1ccc(CCC(=O)c2c(O)cc(O[C@@H]3O[C@H](CO)[C@@H](O)[C@H](O)[C@H]3O[C@@H]3O[C@@H](C)[C@H](O)[C@@H](O)[C@H]3O)cc2O)cc1O` [NHDC, neohesperidin dihydrochalcone], the “R1 = Variant EC50/WT EC50” value was 0.6 and the “Max ΔF/F0” value amounted to 1.03 ± 0.01. For the same molecule, the EC50 (read-out: EC50) was found to be 28.1 ± 12.3 µM.

B1: thaumatin (protein)
chain: ATFEIVNRCSYTVWAAASKGDAALDAGGRQLNSGESWTINVEPGTKGGKIWARTDCYFDDSGSGICKTGDCGGLLRCKRFGRPPTTLAEFSLNQYGKDYIDISNIKGFNVPMDFSPTTRGCRGVRCAADIVGQCPAKLKAPGGGCNDACTVFQTSEYCCTTGKCGPTEYSRFFKRLCPDAFSYVLDKPTTVTCPGSSNYRVTFCPTA
modifications: Eight disulfides
notes: sweet-tasting plant protein, E957
As for B1, the EC50 (read-out: EC50) was determined as 5.7 ± 0.7 µM.
